In ChEMBL document CHEMBL1201862, “PubChem BioAssay data set” (2004):
The source made the active and inactive calls.

Key:
[1] = molecular target: ADP-ribosylation factor GTPase-activating protein 1 (Rattus norvegicus, UniProt Q62848); experiment: Fluorescence polarization-based biochemical high throughput dose response screening assay to identify inhibitors of ADP-ribosylation factor GTPase activating protein 1 (ARFGAP1).; type: functional
[2] = molecular target: Luciferin 4-monooxygenase (Photinus pyralis, UniProt P08659); experiment: Counter Screen for Luciferase-based Assay Positives. [Related pubchem assays: 620, 618, 411 ]
[3] = molecular target: T1, Nuclear receptor subfamily 0 group B member 1 (Homo sapiens, UniProt P51843); type: functional, cell-based;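 note: HEK293T cells transfected with SF-1 and DAX-1 plus StAR promoter luciferase reporter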
T1 sequence (P51843 whole entry): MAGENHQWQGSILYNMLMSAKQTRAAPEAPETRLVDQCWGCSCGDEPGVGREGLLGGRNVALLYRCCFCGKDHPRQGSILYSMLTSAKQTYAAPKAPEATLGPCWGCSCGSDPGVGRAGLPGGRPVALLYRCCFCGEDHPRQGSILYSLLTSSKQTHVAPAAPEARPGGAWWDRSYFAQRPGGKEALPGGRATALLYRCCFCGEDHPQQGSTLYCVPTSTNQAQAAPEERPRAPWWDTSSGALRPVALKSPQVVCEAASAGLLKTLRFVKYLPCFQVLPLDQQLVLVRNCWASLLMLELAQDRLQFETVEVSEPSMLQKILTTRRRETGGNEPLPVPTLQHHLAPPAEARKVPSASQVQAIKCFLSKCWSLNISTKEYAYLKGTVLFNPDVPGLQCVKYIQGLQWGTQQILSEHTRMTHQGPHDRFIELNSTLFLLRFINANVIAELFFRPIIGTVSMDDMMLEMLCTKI

HT-1080 = experiment: cytotoxicity in HT1080 fibrosarcoma cells, cell-based, fluorescence readout (AID 620); type: functional; details: Homo sapiens
cells = type: functional, cell-based
[4] = LGR2 antagonists, dose response, cell-based, HEK293, CRE-luciferase reporter, cherry pick, set 2 (AID 743343); type: functional;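 note: transfected cells were stimulated with diluted bursicon conditioned medium after compound addition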
[5] = MC4R antagonists, dose response, counter-screen for LGR2 antagonist project, cell-based, plate reader, cherry pick (AID 743444); type: functional;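 note: transfected HEK 293 cells stimulated with alpha-MSH peptide; potency of inhibitors of the alpha-MSH evoked signal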
[6] = HepG2 cell cytotoxicity, dose response, cytotoxicity control, plate reader, cherry-pick, antagonist series (AID 743416); type: functional, cell-based
[7] = A549 cell cytotoxicity, dose response, cytotoxicity control, plate reader, cherry-pick, antagonist series (AID 743412); type: functional, cell-based
[8] = molecular target: Eukaryotic translation initiation factor 4H (Homo sapiens, UniProt Q15056); experiment: human eIF4H binding inhibitors, primary screen, translation initiation inhibitor project, biochemical, uHTS, fluorescence polarization (AID 2012)
[9] = molecular target: T2, Small ubiquitin-related modifier 2 (Homo sapiens, UniProt P61956); experiment: inhibitors of SUMO2 protein-protein interaction, dose response, selectivity assay for SUMO1 interaction inhibitor project, biochemical, FRET, human SUMO2, uHTS hits (AID 624384); type: functional; details: read-out: IC50_Mean
[10] = molecular target: T3, Tyrosine-protein phosphatase non-receptor type 22 (Homo sapiens, UniProt Q9Y2R2); experiment: PTPN22 phosphatase inhibition, dose response, selectivity assay for STEP inhibitor project, biochemical (AID 624241); type: functional
T3 sequence (Q9Y2R2 whole entry): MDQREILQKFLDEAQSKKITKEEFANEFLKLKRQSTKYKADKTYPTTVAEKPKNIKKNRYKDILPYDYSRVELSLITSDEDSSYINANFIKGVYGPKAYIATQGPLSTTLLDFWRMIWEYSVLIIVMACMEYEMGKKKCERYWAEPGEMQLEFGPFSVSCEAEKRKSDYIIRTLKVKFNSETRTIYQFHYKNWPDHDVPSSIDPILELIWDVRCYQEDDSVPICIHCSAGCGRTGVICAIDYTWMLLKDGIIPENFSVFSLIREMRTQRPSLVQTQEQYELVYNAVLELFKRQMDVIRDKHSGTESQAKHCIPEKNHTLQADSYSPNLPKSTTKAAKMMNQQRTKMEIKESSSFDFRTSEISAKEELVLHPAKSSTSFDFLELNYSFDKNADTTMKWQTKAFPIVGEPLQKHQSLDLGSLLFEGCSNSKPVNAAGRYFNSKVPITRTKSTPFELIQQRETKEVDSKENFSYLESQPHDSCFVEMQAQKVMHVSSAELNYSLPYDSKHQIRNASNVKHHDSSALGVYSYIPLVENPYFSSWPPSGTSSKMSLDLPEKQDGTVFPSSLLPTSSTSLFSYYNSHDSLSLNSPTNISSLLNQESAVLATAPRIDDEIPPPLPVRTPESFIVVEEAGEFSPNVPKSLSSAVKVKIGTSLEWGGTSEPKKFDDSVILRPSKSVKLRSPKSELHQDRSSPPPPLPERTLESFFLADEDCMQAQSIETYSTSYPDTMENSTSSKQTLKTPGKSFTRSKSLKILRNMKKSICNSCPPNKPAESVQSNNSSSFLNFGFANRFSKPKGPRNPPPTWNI

[11] = molecular target: Dual specificity protein phosphatase 3 (Homo sapiens, UniProt P51452); experiment: VHR phosphatase inhibition, dose response, selectivity assay for STEP inhibitor project, biochemical (AID 602374); type: functional; details: read-out: IC50_Mean
[12] = molecular target: T4, Tyrosine-protein phosphatase non-receptor type 5 (Homo sapiens, UniProt P54829); experiment: STEP phosphatase inhibitors, confirmation, biochemical, fluorescence intensity, uHTS hits (AID 602372); type: functional; details: read-out: IC50_Mean
T4 sequence (P54829 whole entry): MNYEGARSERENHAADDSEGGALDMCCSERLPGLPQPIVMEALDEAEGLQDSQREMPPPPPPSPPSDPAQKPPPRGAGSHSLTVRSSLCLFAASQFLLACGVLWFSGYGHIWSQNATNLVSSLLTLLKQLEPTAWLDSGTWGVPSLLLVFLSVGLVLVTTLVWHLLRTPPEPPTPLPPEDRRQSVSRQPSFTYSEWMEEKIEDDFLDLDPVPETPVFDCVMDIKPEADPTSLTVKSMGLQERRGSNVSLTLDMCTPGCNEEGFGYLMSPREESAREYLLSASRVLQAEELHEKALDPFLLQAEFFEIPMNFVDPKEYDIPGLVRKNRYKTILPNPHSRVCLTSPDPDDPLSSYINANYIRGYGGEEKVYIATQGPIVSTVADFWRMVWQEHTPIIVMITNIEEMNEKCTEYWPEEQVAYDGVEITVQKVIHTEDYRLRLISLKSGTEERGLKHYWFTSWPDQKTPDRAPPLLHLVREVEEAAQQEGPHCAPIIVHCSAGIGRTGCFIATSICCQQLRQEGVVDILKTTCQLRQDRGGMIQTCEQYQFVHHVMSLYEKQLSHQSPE

[13] = molecular target: T2, Small ubiquitin-related modifier 2; experiment: SUMO2–SIM peptide binding inhibitors, dose response, selectivity assay for SUMO1 interaction inhibitor project, biochemical, fluorescence polarization, uHTS hits (AID 624385); type: functional; details: read-out: IC50_Mean
[14] = molecular target: T5, Small ubiquitin-related modifier 1 (Homo sapiens, UniProt P63165); experiment: inhibitors of SUMO1 peptide binding, dose response, biochemical, fluorescence polarization, uHTS hits (AID 624382); type: functional; details: read-out: IC50_Mean
[15] = molecular target: T6, Tyrosine-protein phosphatase non-receptor type 11 (Homo sapiens, UniProt Q06124); experiment: SHP2 phosphatase inhibition, dose response, selectivity assay for STEP inhibitor project, biochemical (AID 602367); type: functional; details: read-out: IC50_Mean
T6 sequence (Q06124 whole entry): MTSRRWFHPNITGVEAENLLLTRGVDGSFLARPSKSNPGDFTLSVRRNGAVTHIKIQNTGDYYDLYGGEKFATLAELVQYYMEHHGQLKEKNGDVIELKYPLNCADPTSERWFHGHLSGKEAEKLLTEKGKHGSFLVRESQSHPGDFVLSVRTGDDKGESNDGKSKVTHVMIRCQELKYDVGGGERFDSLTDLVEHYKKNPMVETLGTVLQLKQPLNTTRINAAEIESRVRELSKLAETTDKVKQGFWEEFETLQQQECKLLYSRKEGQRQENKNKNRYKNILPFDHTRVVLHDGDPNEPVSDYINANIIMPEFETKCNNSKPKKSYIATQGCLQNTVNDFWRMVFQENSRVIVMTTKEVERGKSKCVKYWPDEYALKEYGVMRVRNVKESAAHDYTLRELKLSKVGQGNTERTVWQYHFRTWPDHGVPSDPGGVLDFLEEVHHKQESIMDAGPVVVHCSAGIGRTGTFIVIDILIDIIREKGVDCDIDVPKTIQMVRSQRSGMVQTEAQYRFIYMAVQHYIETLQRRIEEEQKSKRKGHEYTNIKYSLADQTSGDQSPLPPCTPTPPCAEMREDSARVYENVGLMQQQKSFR

[16] = molecular target: T5, Small ubiquitin-related modifier 1; experiment: inhibitors of SUMO1 partner interactions, dose response, biochemical, FRET (AID 624383); type: functional; details: read-out: IC50_Mean
[17] = molecular target: Polyadenylate-binding protein 1 (Homo sapiens, UniProt P11940); experiment: PABP poly(A) RNA binding inhibitors, primary screen, biochemical, fluorescence polarization, uHTS (AID 2014)
[18] = molecular target: T7, Carboxy-terminal domain RNA polymerase II polypeptide A small phosphatase 1 (Homo sapiens, UniProt Q9GZU7); experiment: inhibitors of CTDSP1, concentration-response testing, biochemical assay, absorbance-based, actives from ultra-high-throughput screening (AID 540297); type: functional
T7 sequence (Q9GZU7 whole entry): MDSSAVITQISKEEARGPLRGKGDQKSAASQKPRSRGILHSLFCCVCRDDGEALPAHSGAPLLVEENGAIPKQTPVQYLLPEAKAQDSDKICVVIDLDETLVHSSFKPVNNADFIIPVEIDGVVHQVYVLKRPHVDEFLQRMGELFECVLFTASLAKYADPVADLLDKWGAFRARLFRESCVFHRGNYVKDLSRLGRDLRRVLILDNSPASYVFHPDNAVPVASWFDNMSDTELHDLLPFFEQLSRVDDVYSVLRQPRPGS

[19] = molecular target: T8, Sentrin-specific protease 8 (Homo sapiens, UniProt Q96LD8); type: functional
T8 sequence (Q96LD8 whole entry): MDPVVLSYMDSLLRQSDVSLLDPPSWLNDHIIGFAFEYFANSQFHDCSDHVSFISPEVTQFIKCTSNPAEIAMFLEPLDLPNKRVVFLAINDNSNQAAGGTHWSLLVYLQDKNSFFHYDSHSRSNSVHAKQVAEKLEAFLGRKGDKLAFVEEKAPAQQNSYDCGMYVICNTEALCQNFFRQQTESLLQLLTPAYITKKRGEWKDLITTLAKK

[20] = molecular target: T8, Sentrin-specific protease 8; type: functional; remark: listed apart in the source
[21] = molecular target: Fructose-bisphosphate aldolase (Mycobacterium tuberculosis, UniProt P9WQA3); experiment: Fluorescence-based biochemical high throughput dose response assay for inhibitors of the fructose-bisphosphate aldolase (FBA) of M. tuberculosis.; type: functional
Fructose-bisphosphate aldolase, sequence (P9WQA3 whole entry): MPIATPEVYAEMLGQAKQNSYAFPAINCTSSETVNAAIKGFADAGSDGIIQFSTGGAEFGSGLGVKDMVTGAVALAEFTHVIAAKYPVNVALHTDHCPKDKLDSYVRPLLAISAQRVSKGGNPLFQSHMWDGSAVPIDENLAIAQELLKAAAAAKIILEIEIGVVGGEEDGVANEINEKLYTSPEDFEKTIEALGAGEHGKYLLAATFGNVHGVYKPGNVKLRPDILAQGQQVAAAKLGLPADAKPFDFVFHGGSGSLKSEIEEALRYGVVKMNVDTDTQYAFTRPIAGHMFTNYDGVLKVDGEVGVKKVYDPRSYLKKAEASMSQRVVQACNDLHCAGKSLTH

T5 sequence (P63165 whole entry): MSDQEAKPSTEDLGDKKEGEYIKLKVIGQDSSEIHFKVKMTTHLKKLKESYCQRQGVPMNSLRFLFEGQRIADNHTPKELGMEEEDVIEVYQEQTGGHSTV
T2 sequence (P61956 whole entry): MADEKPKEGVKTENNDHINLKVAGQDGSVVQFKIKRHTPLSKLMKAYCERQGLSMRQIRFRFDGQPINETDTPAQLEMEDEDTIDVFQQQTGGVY
Polyadenylate-binding protein 1, sequence (P11940 whole entry, the tested form may be a part): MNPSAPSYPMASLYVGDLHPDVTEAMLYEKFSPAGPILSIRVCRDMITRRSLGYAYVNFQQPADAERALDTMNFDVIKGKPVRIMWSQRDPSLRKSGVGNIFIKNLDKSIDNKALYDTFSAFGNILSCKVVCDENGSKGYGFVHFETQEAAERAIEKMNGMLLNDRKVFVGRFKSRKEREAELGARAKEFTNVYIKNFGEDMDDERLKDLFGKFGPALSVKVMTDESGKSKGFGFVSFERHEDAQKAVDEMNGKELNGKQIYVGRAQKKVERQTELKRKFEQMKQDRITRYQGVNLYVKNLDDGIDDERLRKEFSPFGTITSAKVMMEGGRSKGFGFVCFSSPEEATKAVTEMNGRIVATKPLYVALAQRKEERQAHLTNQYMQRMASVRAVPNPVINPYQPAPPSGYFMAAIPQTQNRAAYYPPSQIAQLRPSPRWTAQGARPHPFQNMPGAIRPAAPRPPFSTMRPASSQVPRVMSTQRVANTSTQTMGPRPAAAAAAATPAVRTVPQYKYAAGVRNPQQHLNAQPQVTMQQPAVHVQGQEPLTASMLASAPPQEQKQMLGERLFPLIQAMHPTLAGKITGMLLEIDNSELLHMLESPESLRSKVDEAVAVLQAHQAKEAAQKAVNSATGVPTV
ADP-ribosylation factor GTPase-activating protein 1, sequence (Q62848 whole entry): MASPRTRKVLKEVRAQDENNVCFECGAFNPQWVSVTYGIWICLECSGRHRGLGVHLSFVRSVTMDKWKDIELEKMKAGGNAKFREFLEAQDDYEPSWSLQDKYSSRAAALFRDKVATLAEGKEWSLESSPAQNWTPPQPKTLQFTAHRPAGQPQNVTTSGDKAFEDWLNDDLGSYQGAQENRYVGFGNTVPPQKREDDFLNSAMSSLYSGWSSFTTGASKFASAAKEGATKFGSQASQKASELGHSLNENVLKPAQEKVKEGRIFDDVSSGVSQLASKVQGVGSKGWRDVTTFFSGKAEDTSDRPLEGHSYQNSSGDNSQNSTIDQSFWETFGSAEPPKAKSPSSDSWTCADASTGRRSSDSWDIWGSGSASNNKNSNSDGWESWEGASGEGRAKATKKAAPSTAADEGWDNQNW
Dual specificity protein phosphatase 3, sequence (P51452 whole entry): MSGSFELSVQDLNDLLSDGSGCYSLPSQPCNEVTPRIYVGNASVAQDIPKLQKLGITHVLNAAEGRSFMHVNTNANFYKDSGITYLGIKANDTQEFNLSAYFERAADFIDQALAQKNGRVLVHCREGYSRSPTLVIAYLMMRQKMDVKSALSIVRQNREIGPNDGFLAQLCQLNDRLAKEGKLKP
Luciferin 4-monooxygenase, sequence (P08659 whole entry): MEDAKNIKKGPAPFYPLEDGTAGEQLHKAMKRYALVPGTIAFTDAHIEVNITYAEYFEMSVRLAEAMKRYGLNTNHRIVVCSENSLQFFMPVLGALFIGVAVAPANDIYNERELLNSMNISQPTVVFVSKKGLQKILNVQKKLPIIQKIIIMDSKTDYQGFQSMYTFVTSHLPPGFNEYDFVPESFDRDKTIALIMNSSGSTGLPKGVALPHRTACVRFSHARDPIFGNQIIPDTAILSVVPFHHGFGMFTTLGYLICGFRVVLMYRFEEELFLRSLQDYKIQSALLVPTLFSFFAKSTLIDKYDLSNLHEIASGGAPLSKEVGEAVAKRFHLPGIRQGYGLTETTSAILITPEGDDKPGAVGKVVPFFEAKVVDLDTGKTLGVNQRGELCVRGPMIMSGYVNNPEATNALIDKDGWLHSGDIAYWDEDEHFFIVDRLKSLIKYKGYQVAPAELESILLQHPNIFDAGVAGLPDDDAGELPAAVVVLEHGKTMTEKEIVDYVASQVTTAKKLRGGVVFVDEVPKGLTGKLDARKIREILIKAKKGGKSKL

Q: For `Cc1ccc(NC(=O)NNC(=O)COc2ccc([N+](=O)[O-])cc2)cc1C`, which IC50 [1] is on record?
A: 34.5 µM (inactive)

Q: Which EC50 [2] does the source give for `COc1ccc(C(=O)Nc2nnc(-c3ccco3)s2)cc1` here?
A: > 100 µM (not active)

Q: And the IC50 [3]?
A: > 67.5 µM (inactive)

Q: What about the EC50 (HT-1080) of the same compound?
A: > 50 µM (not active)

Q: And the IC50 (cells)?
A: > 67.5 µM (inactive)

Q: And the AC50 [4]?
A: 3.75 µM (active)

Q: And the AC50 [5]?
A: 3.67 µM (active)

Q: What about the AC50 [6] of the same compound?
A: > 52 µM (inactive)

Q: What about the AC50 [7] of the same compound?
A: > 52 µM (inactive)

Q: For `O=C(Nc1cc([N+](=O)[O-])ccc1O)c1cccc(C(=O)Nc2cc([N+](=O)[O-])ccc2O)c1`, which IC50 [8] is on record?
A: 7.71 µM (active)

Q: And the IC50 [9]?
A: > 66 µM (inactive)

Q: And the IC50 [10]?
A: 8.76 µM (active)

Q: And the IC50 [11]?
A: 0.509 µM (active)

Q: What about the IC50 [12] of the same compound?
A: 1.98 µM (active)

Q: What about the IC50 [13] of the same compound?
A: 9.33 µM (active)

Q: What about the IC50 [14] of the same compound?
A: 0.751 µM (active)

Q: And the IC50 [15]?
A: 0.456 µM (active)

Q: And the IC50 [16]?
A: 53.8 µM (inactive)

Q: What about the IC50 [17] of the same compound?
A: 8.96 µM (active)

Q: What about the IC50 [18] of the same compound?
A: 1.03 µM (active)

Q: Which IC50 [19] does the source give for `O=C(c1ccccc1)[C-](C(=O)c1ccc(Cl)cc1)[n+]1ccc2ccccc2c1` here?
A: 9.23 µM (active)

Q: What about the IC50 [20] of the same compound?
A: > 100 µM (inactive)

Q: For `CCCc1cc(=O)oc2cc(OCc3ccc(C(=O)O)o3)ccc12`, which IC50 [21] is on record?
A: 2.44 µM (active)
